One molecule from publication PMC4324447 (Journal of Medicinal Chemistry, 2014) can be followed below.

Structures are written as SMILES.

One experiment has as its target WT hMC4R (Homo sapiens, UniProt P32245). The experiment is classed as cell-based.
A further experiment concerns the target L106P hMC4R (Homo sapiens, UniProt P32245, L106P). As to the kind of experiment: cAMP based CRE/β-galactosidase reporter gene functional bioassay, L106P hMC4R. Format: cell-based. (In general: In a reporter assay the amount or activity of a reporter protein is the signal.)

L106P hMC4R, sequence (P32245 whole entry L106P): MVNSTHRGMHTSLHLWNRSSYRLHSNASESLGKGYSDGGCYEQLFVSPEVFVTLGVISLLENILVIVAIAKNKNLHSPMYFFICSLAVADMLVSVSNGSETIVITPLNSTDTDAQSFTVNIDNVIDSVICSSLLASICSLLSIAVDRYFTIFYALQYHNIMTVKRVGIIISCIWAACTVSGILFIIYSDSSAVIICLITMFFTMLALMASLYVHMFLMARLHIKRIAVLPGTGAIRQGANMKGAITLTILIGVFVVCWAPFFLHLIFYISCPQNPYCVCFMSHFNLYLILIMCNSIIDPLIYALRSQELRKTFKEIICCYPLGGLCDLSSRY
WT hMC4R, sequence (P32245 whole entry): as the sequence (P32245 whole entry L106P) above, with P106L counted along it

With `CC(=O)N[C@@H](Cc1cnc[nH]1)C(=O)N[C@H](Cc1ccccc1)C(=O)N[C@@H](CCCN=C(N)N)C(=O)N1Cc2ccccc2C[C@H]1C(N)=O` [EMH4-107, Ac-His-DPhe-Arg-Tic-NH2], the EC50 (in general, the concentration that produces a half-maximal response) was over 10 µM at WT hMC4R and over 100 µM on L106P hMC4R.
